Test results reported in ChEMBL document CHEMBL1149953 (Bioorg Med Chem Lett, 1996).

How the values were obtained:
Rattus norvegicus [1] = assay: In vivo potency to inhibit the pressor response induced by angiotensin II (100ng/Kg, iv) in conscious normotensive rat at 6 hours after administration of 3 mg/kg, po; type: functional; settings: for inhibition in vivo at 3 mg/kg: Rattus norvegicus, po, 6 h
Rattus norvegicus [2] = assay: In vivo potency to inhibit the pressor response induced by angiotensin II (100ng/Kg, iv) in conscious normotensive rat at 24 hours after administration of 3 mg/kg, po; type: functional; settings: for inhibition in vivo at 3 mg/kg: Rattus norvegicus, po, 24 h
[3] = target: T1, Type-1 angiotensin II receptor B (Rattus norvegicus, UniProt P29089); assay: In vitro ability to displace the specific binding of [125I]-A II from receptors in rat liver membrane(type 1 receptor)
T1 sequence (P29089 whole entry): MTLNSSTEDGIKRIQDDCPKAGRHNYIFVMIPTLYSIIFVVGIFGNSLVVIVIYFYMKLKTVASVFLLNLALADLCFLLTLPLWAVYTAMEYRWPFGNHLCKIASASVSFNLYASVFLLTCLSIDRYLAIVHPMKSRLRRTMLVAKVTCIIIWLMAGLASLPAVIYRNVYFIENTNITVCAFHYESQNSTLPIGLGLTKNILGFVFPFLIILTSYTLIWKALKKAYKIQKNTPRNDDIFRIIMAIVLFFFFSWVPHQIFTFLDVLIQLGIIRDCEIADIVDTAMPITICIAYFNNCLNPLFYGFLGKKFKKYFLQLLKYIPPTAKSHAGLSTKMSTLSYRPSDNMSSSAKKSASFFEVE

Rattus norvegicus [4] = assay: In vivo potency to inhibit the pressor response induced by angiotensin II (100ng/Kg, iv) in conscious normotensive rat at 24 hours after administration of 0.1 mg/kg, po
Rattus norvegicus [5] = assay: Compound was tested for antihypertensive effect in renal hypertensive rats at 1 mg/kg, po expressed as percent reduction in blood pressure; type: functional
Rattus norvegicus [6] = assay: Compound was tested for antihypertensive effect in renal hypertensive rats at 0.3 mg/kg, po expressed as percent reduction in blood pressure; type: functional
Rattus norvegicus [7] = assay: In vivo potency to inhibit the pressor response induced by angiotensin II (100ng/Kg, iv) in conscious normotensive rat at 6 hours after administration of 0.3 mg/kg, po; type: functional
Rattus norvegicus [8] = assay: In vivo potency to inhibit the pressor response induced by angiotensin II (100ng/Kg, iv) in conscious normotensive rat at 6 hours after administration of 0.1 mg/kg, po
Rattus norvegicus [9] = assay: In vivo potency to inhibit the pressor response induced by angiotensin II (100ng/Kg, iv) in conscious normotensive rat at 24 hours after administration of 0.3 mg/kg, po; type: functional
Rattus norvegicus [10] = assay: In vivo potency to inhibit the pressor response induced by angiotensin II (100ng/Kg, iv) in conscious normotensive rat at 24 hours after administration of 1 mg/kg, po; type: functional
Rattus norvegicus [11] = assay: In vivo potency to inhibit the pressor response induced by angiotensin II (100ng/Kg, iv) in conscious normotensive rat at 6 hours after administration of 1 mg/kg, po; type: functional
Rattus norvegicus [12] = assay: Compound was tested for antihypertensive effect in renal hypertensive rats at 3 mg/kg, po expressed as percent reduction in blood pressure; type: functional
Rattus norvegicus [13] = assay: Compound was tested for antihypertensive effect in renal hypertensive rats at 10 mg/kg, po expressed as percent reduction in blood pressure; type: functional
Rattus norvegicus [14] = assay: In vivo potency to inhibit the pressor responses induced by angiotensin II (100ng/kg, iv) in conscious normotensive rat at 10 mg/kg dose specified 24 hr after peroral administration; type: functional; settings: route oral
Rattus norvegicus [15] = assay: Antihypertensive effect as reduction in blood pressure in renal hypertensive rats at 10 mg/kg dose specified administered perorally; type: functional; design: scale not given: the % may be the effect or the level left; settings: route oral
Rattus norvegicus [16] = assay: In vivo potency to inhibit the pressor responses induced by angiotensin II (100ng/kg, iv) in conscious normotensive rat at 1 mg/kg dose specified 6 hr upon peroral administration; type: functional; settings: route oral
Rattus norvegicus [17] = assay: Antihypertensive effect as reduction in blood pressure in renal hypertensive rats at 3 mg/kg dose specified administered perorally; type: functional; design: scale not given: the % may be the effect or the level left; settings: route oral
Rattus norvegicus [18] = assay: In vivo potency to inhibit the pressor responses induced by angiotensin II (100ng/kg, iv) in conscious normotensive rat at 10 mg/kg dose specified 6 hr upon peroral administration; type: functional; settings: route oral
Rattus norvegicus [19] = assay: In vivo potency to inhibit the pressor responses induced by angiotensin II (100ng/kg, iv) in conscious normotensive rat at 3 mg/kg dose specified 24 hr after peroral administration; type: functional; settings: route oral
Rattus norvegicus [20] = assay: In vivo potency to inhibit the pressor responses induced by angiotensin II (100ng/kg, iv) in conscious normotensive rat at 1 mg/kg dose specified 24 hr after peroral administration; type: functional; settings: route oral
Rattus norvegicus [21] = assay: In vivo potency to inhibit the pressor responses induced by angiotensin II (100ng/kg, iv) in conscious normotensive rat at 3 mg/kg dose specified 6 hr upon peroral administration; type: functional; settings: route oral

Question: For `CCc1nn(Cc2ccc(-c3ccccc3-c3nn[nH]n3)cc2)/c(=N/C(=O)c2ccccc2)s1`, which inhibition in vivo at 3 mg/kg (Rattus norvegicus [1]) is on record?
Answer: The inhibition in vivo at 3 mg/kg was 4.9%.

Question: What about the inhibition in vivo at 3 mg/kg (Rattus norvegicus [2]) of the same compound?
Answer: The inhibition in vivo at 3 mg/kg was -0.4%.

Question: And the IC50 [3]?
Answer: Its IC50 is 37 nM.

Question: How did the Inhibition (Rattus norvegicus [4]) turn out when `CCc1nn(Cc2ccc(-c3ccccc3-c3nn[nH]n3)cc2)/c(=N/C(=O)C2=C(C(=O)[O-])CCC2)s1.[K+]` was run?
Answer: The Inhibition was -0.7%.

Question: What about the Reduction (Rattus norvegicus [5]) of the same compound?
Answer: The Reduction was 38.4%.

Question: What about the Reduction (Rattus norvegicus [6]) of the same compound?
Answer: Its Reduction is 27.2%.

Question: And the Inhibition (Rattus norvegicus [7])?
Answer: The Inhibition was 45.4%.

Question: What about the Inhibition (Rattus norvegicus [8]) of the same compound?
Answer: Its Inhibition is 11.4%.

Question: And the Inhibition (Rattus norvegicus [9])?
Answer: Its Inhibition is 20.7%.

Question: What about the Inhibition (Rattus norvegicus [10]) of the same compound?
Answer: Its Inhibition is 57%.

Question: And the Inhibition (Rattus norvegicus [11])?
Answer: Its Inhibition is 72.1%.

Question: With `CCc1nn(Cc2ccc(-c3ccccc3-c3nn[nH]n3)cc2)/c(=N/C(=O)c2ccccc2C(=O)O)s1` as the compound, how does the Reduction (Rattus norvegicus [12]) read?
Answer: The Reduction was 25.1%.

Question: And the inhibition in vivo at 3 mg/kg (Rattus norvegicus [1])?
Answer: Its inhibition in vivo at 3 mg/kg is 48.1%.

Question: What about the inhibition in vivo at 3 mg/kg (Rattus norvegicus [2]) of the same compound?
Answer: Its inhibition in vivo at 3 mg/kg is 23.2%.

Question: What about the IC50 [3] of the same compound?
Answer: The IC50 was 0.66 nM.

Question: And the Reduction (Rattus norvegicus [13])?
Answer: The Reduction was 33.8%.

Question: `CCCCc1nc(Cl)c(CO)n1Cc1ccc(-c2ccccc2-c2nnn[n-]2)cc1.[K+]` [LOSARTAN POTASSIUM] was tested. Which inhibition in vivo at 10 mg/kg (Rattus norvegicus [14]) did it give?
Answer: The inhibition in vivo at 10 mg/kg was 57.4%.

Question: What about the Activity (Rattus norvegicus [15]) of the same compound?
Answer: Its Activity is 40.4%.

Question: What about the inhibition in vivo at 1 mg/kg (Rattus norvegicus [16]) of the same compound?
Answer: Its inhibition in vivo at 1 mg/kg is 19.3%.

Question: What about the Activity (Rattus norvegicus [17]) of the same compound?
Answer: Its Activity is 27.4%.

Question: What about the inhibition in vivo at 10 mg/kg (Rattus norvegicus [18]) of the same compound?
Answer: Its inhibition in vivo at 10 mg/kg is 74.2%.

Question: And the inhibition in vivo at 3 mg/kg (Rattus norvegicus [19])?
Answer: The inhibition in vivo at 3 mg/kg was 27.9%.

Question: And the inhibition in vivo at 1 mg/kg (Rattus norvegicus [20])?
Answer: The inhibition in vivo at 1 mg/kg was 7.3%.

Question: What about the inhibition in vivo at 3 mg/kg (Rattus norvegicus [21]) of the same compound?
Answer: Its inhibition in vivo at 3 mg/kg is 50.1%.

Question: What does the source list for `CCc1nn(Cc2ccc(-c3ccccc3-c3nn[nH]n3)cc2)/c(=N/C(=O)C2=C(C(=O)O)CCC2)s1`?
Answer: Reduction (Rattus norvegicus [5]): 33.5%; Reduction (Rattus norvegicus [12]): 44.3%; Inhibition (Rattus norvegicus [7]): 22.4%; Inhibition (Rattus norvegicus [1]): 39.5%; Inhibition (Rattus norvegicus [2]): 63.1%; inhibition in vivo at 0.3 mg/kg (Rattus norvegicus [9]; Rattus norvegicus, po, 24 h): 15%; IC50 [3]: 0.44 nM; Inhibition (Rattus norvegicus [10]): 36.6%; Inhibition (Rattus norvegicus [11]): 36.4%

Question: `CCc1nn(Cc2ccc(-c3ccccc3-c3nn[nH]n3)cc2)/c(=N/C(=O)C2CC2)s1` was tested. Which inhibition in vivo at 3 mg/kg (Rattus norvegicus [1]) did it give?
Answer: Its inhibition in vivo at 3 mg/kg is 7.8%.

Question: What about the inhibition in vivo at 3 mg/kg (Rattus norvegicus [2]) of the same compound?
Answer: Its inhibition in vivo at 3 mg/kg is -12.4%.

Question: What about the IC50 [3] of the same compound?
Answer: Its IC50 is 6.5 nM.

Question: Which results are given for `CCc1nn(Cc2ccc(-c3ccccc3-c3nn[nH]n3)cc2)/c(=N/C(=O)c2ccccc2Cl)s1`?
Answer: inhibition in vivo at 3 mg/kg (Rattus norvegicus [1]): 21.3%; inhibition in vivo at 3 mg/kg (Rattus norvegicus [2]): -11.3%; IC50 [3]: 3.6 nM; Reduction (Rattus norvegicus [13]): 20.2%

Question: With `CCc1nn(Cc2ccc(-c3ccccc3-c3nn[nH]n3)cc2)/c(=N/C(C)=O)s1` as the compound, how does the inhibition in vivo at 3 mg/kg (Rattus norvegicus [1]) read?
Answer: The inhibition in vivo at 3 mg/kg was 11.3%.

Question: And the inhibition in vivo at 3 mg/kg (Rattus norvegicus [2])?
Answer: Its inhibition in vivo at 3 mg/kg is -10.3%.

Question: What about the IC50 [3] of the same compound?
Answer: Its IC50 is 7.2 nM.
